Peptide text beside a SMILES is read from it.
Key:
[1] = biological target: DOR-1 clone (delta opioid receptor) (Mus musculus, UniProt P32300, V68C)
[2] = biological target: receptor encoded by the DOR-1 clone (delta opioid receptor) (Mus musculus, UniProt P32300, V68C)
[3] = biological target: T1, DOR-2 (mMOR-1) mu receptor (Mus musculus, UniProt P42866, H54D/R258Q/R47P/S53N/V245G); type: binding, murine
T1 construct: expressed in transfected cells

[4] = test system: opiate receptors
From the text: The purification of mono-iodinated from di-iodinated and non-iodinated DADLE by the HPLC step yields a ligand with very high specific activity (approximately 2000 Ci/mmol).

Chain of receptor encoded by the DOR-1 clone (delta opioid receptor) (P32300 whole entry V68C): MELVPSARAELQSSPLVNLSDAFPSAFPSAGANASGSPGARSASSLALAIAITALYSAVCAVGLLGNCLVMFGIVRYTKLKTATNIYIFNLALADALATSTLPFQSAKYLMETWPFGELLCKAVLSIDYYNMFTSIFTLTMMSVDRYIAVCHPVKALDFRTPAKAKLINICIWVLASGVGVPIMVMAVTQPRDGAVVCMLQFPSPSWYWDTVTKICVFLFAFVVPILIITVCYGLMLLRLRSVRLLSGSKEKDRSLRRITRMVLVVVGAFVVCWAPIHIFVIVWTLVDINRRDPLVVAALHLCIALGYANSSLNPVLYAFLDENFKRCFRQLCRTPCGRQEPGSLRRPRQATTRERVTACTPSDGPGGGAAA
Chain of DOR-1 clone (delta opioid receptor) (P32300 whole entry V68C): as above
T1 sequence (P42866 whole entry R47P/S53N/H54D/V245G/R258Q): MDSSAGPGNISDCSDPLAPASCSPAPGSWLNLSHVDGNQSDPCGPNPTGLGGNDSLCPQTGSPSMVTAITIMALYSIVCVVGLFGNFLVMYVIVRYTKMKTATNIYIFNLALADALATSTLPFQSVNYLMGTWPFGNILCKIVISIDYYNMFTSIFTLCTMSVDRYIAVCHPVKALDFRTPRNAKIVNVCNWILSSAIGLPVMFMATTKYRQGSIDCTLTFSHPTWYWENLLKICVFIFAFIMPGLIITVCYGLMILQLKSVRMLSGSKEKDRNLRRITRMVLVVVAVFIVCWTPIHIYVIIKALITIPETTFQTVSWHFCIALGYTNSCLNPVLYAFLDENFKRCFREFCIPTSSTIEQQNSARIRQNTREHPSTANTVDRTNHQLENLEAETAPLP

Compound	displacement of 125I-DADLE binding [1]	displacement of 3H-diprenorphine [2]	displacement of 3H-diprenorphine, rank in decreasing order of affinity [2]	displacement of 3H-DPN [3]	binding affinity compared with DADLE [4]
CN1CC[C@]23CCCC[C@H]2[C@H]1Cc1ccc(O)cc13 [levorphanol]	did displace	displaced	in decreasing order of affinity, was observed with diprenorphine, etorphine, levorphanol and morphine	–	–
C[C@@H](NC(=O)[C@@H](N)Cc1ccc(O)cc1)C(=O)NCC(=O)N(C)[C@@H](Cc1ccccc1)C(=O)NCCO [DAGO, D-Alka^2-N-MePhe^4-Gly-ol^5-enkephalin]	did not displace	Only weak displacement	–	displacement of ^3H-DPN by nanomolar concentrations	–
NC(=O)[C@@H]1CCCN1C(=O)[C@H](Cc1ccccc1)NC(=O)[C@@H]1CCCN1C(=O)[C@@H](N)Cc1ccc(O)cc1 [morphiceptin] (H-YPFP-NH2)	–	–	–	displacement of ^3H-DPN by nanomolar concentrations	–
mono-^125I-2dAla, 5dLeu enkephalin [^125I-DADLE]	–	–	–	–	slightly lower

Source: patent US7723071B2 (priority 1992, dated 2010)
